Experimental data as given in PMC6614837 (Nucleic Acids Research, 2019).

Experiments:
[1] = molecular target: T1, RNase P holoenzyme from Thermotoga maritima (Thermotoga maritima, UniProt Q9X1H4); assay: Real-time fluorescence-based RNase P activity assay with bipartite pre-tRNA substrate; assay type: biochemical; details: fluorescent bipartite pre-tRNA substrate, holoenzyme 33 nM, 10% PEG 200 in place of DMSO
T1 construct: made in house
T1 sequence (Q9X1H4 1-117): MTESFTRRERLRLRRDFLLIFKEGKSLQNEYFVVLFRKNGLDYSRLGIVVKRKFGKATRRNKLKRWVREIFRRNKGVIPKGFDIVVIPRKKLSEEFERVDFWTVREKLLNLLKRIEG
Procedure: The reconstitution of the RNase P holoenzyme was performed as described in ([40],[19]). This protocol produces a homogeneous and functional ribozyme that can be crystallized by mixing P RNA and P protein in a 1:1.1 molar ratio in 1× TH buffer (33 mM Tris–HCl, 66 mM HEPES, pH 7.4) and 400 mM ammonium acetate (AmOAc). The mixture was heated to 95°C for 2 min in a water bath, then chilled on ice for 2 min, after which MgCl2 was added to a final concentration of 100 mM. […] This higher concentration was used in all experiments described herein. The holoenzyme was further incubated at 50°C for 10 min and 37°C for 40 min. The final concentration of holoenzyme was 333 nM (35.6 μg/ml of P RNA and 4.7 μg/ml of P protein).
The bipartite pre-tRNA substrate derived from pre-tRNA^Phe from T. maritima (Supplementary Figure S13) was designed for the ease of chemical synthesis and conceived from the fact that the anticodon loop is not required for RNase P recognition (Reiter et al.). As for the Mh substrate, fluorescent bipartite pre-tRNA was coupled to Black Hole Quencher 1 (BHQ1) at the 5′-end of the 5′ oligo, and to Alexa Fluor 488 at the 3′-end of the 3′ oligo (see Supplementary Table S1). The probes were purchased from Integrated DNA Technologies (IDT). A requested scale of 250 nmol yielded 27.4 nmol (0.36 mg) for the 5′ oligo and 3.8 nmol (50 μg) for the 3′ fluorescent oligo. Before use, the probes were diluted from a 100 μM stock (dissolved in water) and assembled by mixing and heating to 3.6 μM in activity buffer L (Tris–HCl pH 7.4 33 mM, HEPES 66 mM, 100 mM AmOAc and 10 mM MgCl2).
Reactions were performed in a total volume of 20 μl. Pipetting was done by hand using multichannel pipettes. First, an 18 μl reaction mixture containing 16.5 μl of activity buffer (H for Mh or L supplemented with 10% PEG 200 for bipartite pre-tRNA) and 270 nM (Mh) or 135 nM (bipartite pre-tRNA) (1.5 or 0.7 μl of the 3.6 μM stock) of the fluorescent substrate probe was pre-incubated on ice for at least 5 m in a black polystyrene 384-well microtiter microplate with a flat transparent bottom (Corning ref 3540). The holoenzyme was then added at a final concentration of 33 nM (2 μl of a 333 nM stock) in 1× TH buffer and mixed. Kinetic activity was monitored in a Synergy MX Multimode Detector (BioTek) at 37°C with rapid agitation. At least 20 readings were taken per well every 15 s. The probe was excited at 485 nm, and its emission was monitored at 535 nm with an integration time of 1 s. From the plots of relative fluorescent units (RFU) versus time, linear regression was used to determine the slopes in the linear portion of the curves, using at least 12 data points to obtain initial velocities. Non-linear fitting to obtain the Michaelis–Menten parameters was performed using GraphPad Prism® 6.01 software. […]

P RNA = assay: Biolayer interferometry binding to immobilized P RNA; parameters: species or system T. maritima; details: BLI, P RNA on SSA biosensors via biotinylated oligonucleotide
Procedure: Real-time binding assays of the holoenzyme, P RNA, P protein, the substrate minihelix and the 5′-leader to individual compounds were performed by biolayer interferometry using an Octet RED96 system (ForteBio). For the holoenzyme or P RNA, a 5′ biotinylated RNA oligonucleotide with the sequence 5′biotin-CAUUCCAGACGAU was immobilized on Super Streptavidin (SSA) biosensors. Then, a modified P RNA or holoenzyme was added. The P RNA modification consisted of a sequence with part of the P1 stem sequence complementary to the biotinylated oligonucleotide (AUCGUCUGGA) (Supplementary Figure S23A). P1 is far from the active site or other regions involved in specific interactions (Supplementary Figure S23B) ([19]). The activity of this construct was indistinguishable from the wild-type holoenzyme. Alternatively, the holoenzyme was immobilized through the His-tagged P protein from T. maritima at 0.05 mg/ml (3.4 μM) on Ni-NTA biosensors. Control biosensors were used to subtract non-specific binding of compounds to the biosensor surface. All assay steps (immobilization, wash, baseline, association, and dissociation) were performed in 20 mM HEPES pH 7.4, 100 mM ammonium acetate, 10 mM MgCl2, 2.5% DMSO. The assays were performed on black bottom 96-well microplates (Greiner Bio-One 655209) in a total volume of 200 μl, at 30°C with orbital shaking at 1000 rpm. Experiments were controlled with the software Data Acquisition 8.2 (ForteBio, Inc.). Kinetic binding parameters were calculated using Data Analysis 8.2 (ForteBio, Inc.). After subtraction of reference biosensors, the binding curves were aligned to the X- and Y-axis and the association-dissociation inter-step curve in order to get a common baseline for the association and dissociation phases.
Figure 3. The inhibitors purpurin and hematein bind to the holoenzyme. (A) Top. […] Bottom. […] (B) The relative affinities of the inhibitors for the P RNA or the holoenzyme differ. Binding sensorgrams obtained by biolayer interferometry (BLI). […]

| Structure (SMILES) | IC50 [1] [µM] | Binding to P RNA (P RNA) |
| --- | --- | --- |
| O=C1C=C2CC3(O)COc4c(ccc(O)c4O)C3=C2C=C1O (centres unmarked) [Hematein, 3,4,6a,10-tetrahydroxy-6a,7-dihydroindeno[2,1-c]chromen-9(6H)-one] | 87.9 ± 19.7 | binds only slightly to P RNA |
| O=C1C=CC(=O)c2c(O)cccc21 [Juglone, 5-hydroxy-1,4-naphthoquinone] | 11.9 ± 1.7 |  |
| O=C1c2ccccc2C(=O)c2c(O)c(O)cc(O)c21 [Purpurin, 1,2,4-trihydroxyanthraquinone] | 13.1 ± 2.3 | does not bind to P RNA |
